Results published in ChEMBL document CHEMBL4316623, “Phosphonodiamidate prodrugs of N-alkoxy analogs of a fosmidomycin surrogate as antimalarial and antitubercular agents” (Bioorg Med Chem Lett, 2019).
Active and inactive are the calls of the source. The calls are words filed in the database; no cut-off is given here.

Key:
Plasmodium falciparum = experiment: Antimalarial activity against Chloroquine-resistant Plasmodium falciparum K1 measured after 72 hrs by malstat/NBT dye based assay; format: functional, organism-based; details: K1, 72 h
[1] = test system: Mycobacterium tuberculosis; experiment: Antitubercular activity against Mycobacterium tuberculosis H37Rv up to 50 uM measured after 7 days by resazurin dye based colometric microtiter assay; format: functional, organism-based
[2] = Cytotoxicity against human MRC5 cells assessed as reduction in cell viability measured after 24 hrs by resazurin dye based fluorimetric assay
[3] = Selectivity index, ratio of CC50 for human MRC5 cells to IC50 for Chloroquine-resistant Plasmodium falciparum K1; format: toxicity; details: read-out: Ratio CC50/IC50
[4] = Oral bioavailability in human; format: ADME, organism-based; details: in vivo
[5] = Half life in human at 500 mg, po; format: ADME; details: in vivo

SMILES | IC50 (Plasmodium falciparum) | Activity [1] | CC50 at 24 h [2] | selectivity ratio [3] | bioavailability [4] | half-life [5]
CCOC(=O)[C@H](CC(C)C)NP(=O)(CCCC(=O)N(C)OCCCc1ccccc1)N[C@@H](CC(C)C)C(=O)OCC | 8.93 µM | inactive | 23.1 µM | 2.6 |  | 
CCOC(=O)[C@H](CC(C)C)NP(=O)(CCCC(=O)N(C)OCc1ccccc1)N[C@@H](CC(C)C)C(=O)OCC | 4.22 µM | inactive | > 64 µM | > 15 |  | 
CCOC(=O)[C@H](CC(C)C)NP(=O)(CCCC(=O)N(C)OCc1ccc2ccccc2c1)N[C@@H](CC(C)C)C(=O)OCC | 6.22 µM | inactive | 5.47 µM | 0.88 |  | 
CCOC(=O)[C@H](CC(C)C)NP(=O)(CCCC(=O)N(C)OCc1ccc(C(C)C)cc1)N[C@@H](CC(C)C)C(=O)OCC | 5.28 µM | inactive | 7.22 µM | 1.4 |  | 
CCOC(=O)[C@H](CC(C)C)NP(=O)(CCCC(=O)N(C)OCc1ccc(-c2ccccc2)cc1)N[C@@H](CC(C)C)C(=O)OCC | 5.25 µM | inactive | 5.94 µM | 1.1 |  | 
CCOC(=O)[C@H](CC(C)C)NP(=O)(CCCC(=O)N(C)OCCCCc1ccccc1)N[C@@H](CC(C)C)C(=O)OCC | 6.72 µM | inactive | 7.23 µM | 1.1 |  | 
CCOC(=O)[C@H](CC(C)C)NP(=O)(CCCC(=O)N(C)O)N[C@@H](CC(C)C)C(=O)OCC | 4.83 µM | inactive | > 64 µM | > 20 |  | 
O=CN(O)CCCP(=O)([O-])O.[Na+] [FOSMIDOMYCIN SODIUM] |  |  |  |  | 20 to 40% | 1.87 h
CCOC(=O)[C@H](CC(C)C)NP(=O)(CCCC(=O)N(C)OCc1ccc(Cl)cc1)N[C@@H](CC(C)C)C(=O)OCC | 7.12 µM | inactive | 18.4 µM | 2.6 |  | 
